The nature of this series: Solubility of Compound I in various vehicles (high throughput screening, HPLC assay of solution phase). It is filed as physicochemical. On the procedure:
Solubility of Compound 1 was determined using a high throughput screening method.
The above solubilities were determined by adding Compound I to the test system and stirred. Following an equilibrium time, the material in the solution phase is assayed by HPLC to determine solubility.

Each structure is given as a SMILES string. ≈ marks a conversion by molar mass, not a printed value. Where two headings read alike, the source gives them in different places.

For orientation: solubility means how much of the substance goes into solution per volume. For `CC(C)(F)[C@H](c1cc(F)cc(C#N)c1)C1CN([C@@H](c2ccc(Cl)cc2)c2cccc(-c3n[nH]c(=O)o3)c2)C1` [Compound I, 3-[(1S)-1-(1-{(S)-(4-chlorophenyl)[3-(5-oxo-4,5-dihydro-1,3,4-oxadiazol-2-yl)phenyl]methyl}azetidin-3-yl)-2-fluoro-2-methylpropyl]-5-fluorobenzonitrile], the solubility reads like this: (aqueous with cosolvent or surfactant or cyclodextrin, thermodynamic from solid, vehicle CREMOPHOR EL (aqueous solution), free base, read-out: Solubility in vehicle at ambient temperature) less than 40 µg/mL; (aqueous with cosolvent or surfactant or cyclodextrin, thermodynamic from solid, vehicle Methyl Cellulose (aqueous solution), free base, read-out: Solubility in vehicle at ambient temperature) less than 40 µg/mL; (aqueous with cosolvent or surfactant or cyclodextrin, thermodynamic from solid, vehicle Methyl Cellulose with SDS (aqueous solution), free base, read-out: Solubility in vehicle at ambient temperature) less than 40 µg/mL; (aqueous with cosolvent or surfactant or cyclodextrin, thermodynamic from solid, vehicle POLYSORBATE 80 (aqueous solution), free base, read-out: Solubility in vehicle at ambient temperature) less than 40 µg/mL; (aqueous with cosolvent or surfactant or cyclodextrin, thermodynamic from solid, vehicle Sodium lauryl sulfate (aqueous solution), free base, read-out: Solubility in vehicle at ambient temperature) less than 40 µg/mL; (aqueous with cosolvent or surfactant or cyclodextrin, thermodynamic from solid, vehicle Vitamin E TPGS (aqueous solution), free base, read-out: Solubility in vehicle at ambient temperature) less than 40 µg/mL. Further, the solubility was less than 40 µg/mL (fassgf or other biorelevant, thermodynamic from solid, vehicle Simulated gastric fluids (fasted and fed), free base, read-out: Solubility in vehicle at ambient temperature); 1 µg/mL (≈ 1.87 µM) (water, statement in description, read-out: solubility in water). In addition, the “Solubility in vehicle at ambient temperature” value is, setting by setting: (vehicle 0.01N HCl/34 mMNaCl, free base) 0.007 mg/g; (vehicle IMWITOR 742, free base) 318 mg/g; (vehicle IMWITOR:TWEEN (1:1), free base) greater than 240 mg/g; (vehicle MIGLYOL 812, free base) 86 mg/g; (vehicle Water, free base) 0.001 mg/g.
